Measured values taken from PubChem BioAssay (NCI).
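The compound was tested at five concentrations on cells cultured in 96-well plates, with a 48-hour exposure period. GI50 = concentration required for 50% inhibition of growth. The concentration for full growth arrest is given as TGI.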

How the values were obtained:
Experiment in all cases: NCI anticancer screen, dose series, 48 h
T-47D breast = test system: T-47D breast
EKVX NSCLC = test system: EKVX NSCLC
HCC-2998 colon = test system: HCC-2998 colon
M14 melanoma = test system: M14 melanoma
NCI-H23 lung = test system: NCI-H23 lung
OVCAR-5 ovarian = test system: OVCAR-5 ovarian
HCT-116 colon = test system: HCT-116 colon
SK-MEL-28 melanoma = test system: SK-MEL-28 melanoma
HOP-62 NSCLC = test system: HOP-62 NSCLC
A549 NSCLC = test system: A549 NSCLC
OVCAR-3 ovarian = test system: OVCAR-3 ovarian
SF-268 CNS = test system: SF-268 CNS
NCI-H522 lung = test system: NCI-H522 lung
OVCAR-4 ovarian = test system: OVCAR-4 ovarian
A498 renal = test system: A498 renal
SK-MEL-5 melanoma = test system: SK-MEL-5 melanoma
NCI-H460 lung = test system: NCI-H460 lung
PC-3 prostate = test system: PC-3 prostate
SNB-19 CNS = test system: SNB-19 CNS
NCI-H226 lung = test system: NCI-H226 lung
HOP-92 NSCLC = test system: HOP-92 NSCLC
HCT-15 colon = test system: HCT-15 colon
HS 578T breast = test system: HS 578T breast
TK-10 renal = test system: TK-10 renal
MDA-MB-435 = test system: MDA-MB-435
RPMI-8226 leukemia = test system: RPMI-8226 leukemia
SN12C renal = test system: SN12C renal
OVCAR-8 ovarian = test system: OVCAR-8 ovarian
SF-295 CNS = test system: SF-295 CNS
786-0 renal = test system: 786-0 renal
MCF7 breast = test system: MCF7 breast
BT-549 breast = test system: BT-549 breast
CCRF-CEM leukemia = test system: CCRF-CEM leukemia
UACC-257 melanoma = test system: UACC-257 melanoma
SF-539 CNS = test system: SF-539 CNS
NCI/ADR-RES ovarian = test system: NCI/ADR-RES ovarian
K-562 leukemia = test system: K-562 leukemia
MALME-3M melanoma = test system: MALME-3M melanoma
HL-60(TB) leukemia = test system: HL-60(TB) leukemia
COLO 205 colon = test system: COLO 205 colon
UACC-62 melanoma = test system: UACC-62 melanoma
ACHN renal = test system: ACHN renal
SK-OV-3 ovarian = test system: SK-OV-3 ovarian
HT29 colon = test system: HT29 colon
UO-31 renal = test system: UO-31 renal
SW-620 colon = test system: SW-620 colon
MDA-MB-231 breast = test system: MDA-MB-231 breast
SNB-75 CNS = test system: SNB-75 CNS
DU-145 prostate = test system: DU-145 prostate
SK-MEL-2 melanoma = test system: SK-MEL-2 melanoma
U251 CNS = test system: U251 CNS
MOLT-4 leukemia = test system: MOLT-4 leukemia
CAKI-1 renal = test system: CAKI-1 renal
IGROV1 ovarian = test system: IGROV1 ovarian
LOX IMVI melanoma = test system: LOX IMVI melanoma
KM12 colon = test system: KM12 colon
RXF 393 renal = test system: RXF 393 renal
SR leukemia = test system: SR leukemia

COc1ccc(-c2cn(-c3ccccc3)c(-c3ccccc3)n2)cc1OC
GI50 (T-47D breast): 1.75 µM
TGI (T-47D breast): 20.2 µM
GI50 (EKVX NSCLC): 12.1 µM
TGI (EKVX NSCLC): 29.1 µM
GI50 (HCC-2998 colon): 6.39 µM
TGI (HCC-2998 colon): 20.7 µM
GI50 (M14 melanoma): 5.69 µM
TGI (M14 melanoma): 20 µM
GI50 (NCI-H23 lung): 5.51 µM
TGI (NCI-H23 lung): 25 µM
GI50 (OVCAR-5 ovarian): 7.33 µM
TGI (OVCAR-5 ovarian): 20.9 µM
GI50 (HCT-116 colon): 2.84 µM
TGI (HCT-116 colon): 11.9 µM
GI50 (SK-MEL-28 melanoma): 12 µM
TGI (SK-MEL-28 melanoma): 26.2 µM
GI50 (HOP-62 NSCLC): 4.44 µM
TGI (HOP-62 NSCLC): 17.9 µM
GI50 (A549 NSCLC): 3.71 µM
TGI (A549 NSCLC): 16 µM
GI50 (OVCAR-3 ovarian): 2.2 µM
TGI (OVCAR-3 ovarian): 5.07 µM
GI50 (SF-268 CNS): 3.35 µM
TGI (SF-268 CNS): 13.5 µM
GI50 (NCI-H522 lung): 6.63 µM
TGI (NCI-H522 lung): 19.6 µM
GI50 (OVCAR-4 ovarian): 10.9 µM
TGI (OVCAR-4 ovarian): 32.9 µM
GI50 (A498 renal): 18.7 µM
TGI (A498 renal): 34.8 µM
GI50 (SK-MEL-5 melanoma): 8.03 µM
TGI (SK-MEL-5 melanoma): 20.7 µM
GI50 (NCI-H460 lung): 3.57 µM
TGI (NCI-H460 lung): 14.9 µM
GI50 (PC-3 prostate): 5.53 µM
TGI (PC-3 prostate): 24.7 µM
GI50 (SNB-19 CNS): 7.5 µM
TGI (SNB-19 CNS): 21.1 µM
GI50 (NCI-H226 lung): 15 µM
TGI (NCI-H226 lung): 40.3 µM
GI50 (HOP-92 NSCLC): 1.82 µM
TGI (HOP-92 NSCLC): 10.8 µM
GI50 (HCT-15 colon): 2.62 µM
TGI (HCT-15 colon): 11.2 µM
GI50 (HS 578T breast): 5.68 µM
TGI (HS 578T breast): > 100 µM
GI50 (TK-10 renal): 12.2 µM
TGI (TK-10 renal): 26.1 µM
GI50 (MDA-MB-435): 2.94 µM
TGI (MDA-MB-435): 12.5 µM
GI50 (RPMI-8226 leukemia): 1.31 µM
TGI (RPMI-8226 leukemia): 3.59 µM
GI50 (SN12C renal): 5.2 µM
TGI (SN12C renal): 17.8 µM
GI50 (OVCAR-8 ovarian): 3.01 µM
TGI (OVCAR-8 ovarian): 10.8 µM
GI50 (SF-295 CNS): 3.5 µM
TGI (SF-295 CNS): 17.1 µM
GI50 (786-0 renal): 3.56 µM
TGI (786-0 renal): 13.5 µM
GI50 (MCF7 breast): 2.72 µM
TGI (MCF7 breast): 13.1 µM
GI50 (BT-549 breast): 2.86 µM
TGI (BT-549 breast): 18.5 µM
GI50 (CCRF-CEM leukemia): 2.16 µM
TGI (CCRF-CEM leukemia): 5.98 µM
GI50 (UACC-257 melanoma): 4.84 µM
TGI (UACC-257 melanoma): 16.8 µM
GI50 (SF-539 CNS): 2.14 µM
TGI (SF-539 CNS): 6.16 µM
GI50 (NCI/ADR-RES ovarian): 4.01 µM
TGI (NCI/ADR-RES ovarian): 30.2 µM
GI50 (K-562 leukemia): 3.21 µM
TGI (K-562 leukemia): > 100 µM
GI50 (MALME-3M melanoma): 9.17 µM
TGI (MALME-3M melanoma): 22.7 µM
GI50 (HL-60(TB) leukemia): 2.34 µM
TGI (HL-60(TB) leukemia): 6.7 µM
GI50 (COLO 205 colon): 2.68 µM
TGI (COLO 205 colon): 12.3 µM
GI50 (UACC-62 melanoma): 10.4 µM
TGI (UACC-62 melanoma): 22.6 µM
GI50 (ACHN renal): 9.55 µM
TGI (ACHN renal): 21.4 µM
GI50 (SK-OV-3 ovarian): 7.44 µM
TGI (SK-OV-3 ovarian): 20.9 µM
GI50 (HT29 colon): 4.5 µM
TGI (HT29 colon): > 100 µM
GI50 (UO-31 renal): 2.7 µM
TGI (UO-31 renal): 14.4 µM
GI50 (SW-620 colon): 3.69 µM
TGI (SW-620 colon): 18.5 µM
GI50 (MDA-MB-231 breast): 10.8 µM
TGI (MDA-MB-231 breast): 23.5 µM
GI50 (SNB-75 CNS): 13.6 µM
TGI (SNB-75 CNS): 28.5 µM
GI50 (DU-145 prostate): 2.9 µM
TGI (DU-145 prostate): 7.92 µM
GI50 (SK-MEL-2 melanoma): 7.06 µM
TGI (SK-MEL-2 melanoma): 22.5 µM
GI50 (U251 CNS): 2.46 µM
TGI (U251 CNS): 10.6 µM
GI50 (MOLT-4 leukemia): 2.96 µM
TGI (MOLT-4 leukemia): 10.9 µM
GI50 (CAKI-1 renal): 11.2 µM
TGI (CAKI-1 renal): 27 µM
GI50 (IGROV1 ovarian): 2.72 µM
TGI (IGROV1 ovarian): 9.3 µM
GI50 (LOX IMVI melanoma): 3.08 µM
TGI (LOX IMVI melanoma): 11.7 µM
GI50 (KM12 colon): 2.4 µM
TGI (KM12 colon): 6.41 µM

Cc1cc2c(c(C=NCc3ccccc3)c1)OC1(C=C2)Oc2ccccc2C(=O)N1C (configuration not stated)
TGI (T-47D breast): 45.9 µM
TGI (EKVX NSCLC): 57.6 µM
TGI (HCC-2998 colon): 57.4 µM
TGI (M14 melanoma): > 100 µM
TGI (NCI-H23 lung): 69.6 µM
TGI (OVCAR-5 ovarian): 56 µM
TGI (HCT-116 colon): 61.6 µM
TGI (SK-MEL-28 melanoma): > 100 µM
TGI (HOP-62 NSCLC): > 100 µM
TGI (A549 NSCLC): > 100 µM
TGI (OVCAR-3 ovarian): > 100 µM
TGI (SF-268 CNS): 76.3 µM
TGI (OVCAR-4 ovarian): 69.9 µM
TGI (A498 renal): 77.6 µM
TGI (SK-MEL-5 melanoma): 50.3 µM
TGI (NCI-H460 lung): 55.4 µM
TGI (PC-3 prostate): 75.3 µM
TGI (SNB-19 CNS): > 100 µM
TGI (NCI-H226 lung): 42.9 µM
TGI (HOP-92 NSCLC): 43 µM
TGI (HCT-15 colon): 45.4 µM
TGI (HS 578T breast): 63.6 µM
TGI (TK-10 renal): 79.7 µM
TGI (MDA-MB-435): 78.4 µM
TGI (RPMI-8226 leukemia): 50.4 µM
TGI (RXF 393 renal): 55.9 µM
TGI (SN12C renal): 78 µM
TGI (OVCAR-8 ovarian): 35.6 µM
TGI (SF-295 CNS): > 100 µM
TGI (786-0 renal): > 100 µM
TGI (MCF7 breast): > 100 µM
TGI (BT-549 breast): 62.5 µM
TGI (CCRF-CEM leukemia): 36.3 µM
TGI (UACC-257 melanoma): 67 µM
TGI (SR leukemia): 49.9 µM
TGI (NCI/ADR-RES ovarian): 48 µM
TGI (K-562 leukemia): > 100 µM
TGI (HL-60(TB) leukemia): 60.2 µM
TGI (COLO 205 colon): 39.8 µM
TGI (UACC-62 melanoma): 48.2 µM
TGI (ACHN renal): 69.7 µM
TGI (SK-OV-3 ovarian): > 100 µM
TGI (HT29 colon): 51.7 µM
TGI (UO-31 renal): 40.9 µM
TGI (SW-620 colon): > 100 µM
TGI (MDA-MB-231 breast): 78.1 µM
TGI (SNB-75 CNS): 75.8 µM
TGI (DU-145 prostate): 70.4 µM
TGI (SK-MEL-2 melanoma): 62.6 µM
TGI (U251 CNS): 80.3 µM
TGI (MOLT-4 leukemia): 36.5 µM
TGI (CAKI-1 renal): 66.5 µM
TGI (IGROV1 ovarian): 68.1 µM
TGI (LOX IMVI melanoma): 34.5 µM
TGI (KM12 colon): 64.5 µM
